# Measurements reported in US12577257B2, “Heterocyclic compounds” (Hoffmann-La Roche Inc., priority 2018, dated 2026).
# Target: T1, MAGL (Homo sapiens, UniProt Q99685)
# T1 sequence (Q99685 1-303): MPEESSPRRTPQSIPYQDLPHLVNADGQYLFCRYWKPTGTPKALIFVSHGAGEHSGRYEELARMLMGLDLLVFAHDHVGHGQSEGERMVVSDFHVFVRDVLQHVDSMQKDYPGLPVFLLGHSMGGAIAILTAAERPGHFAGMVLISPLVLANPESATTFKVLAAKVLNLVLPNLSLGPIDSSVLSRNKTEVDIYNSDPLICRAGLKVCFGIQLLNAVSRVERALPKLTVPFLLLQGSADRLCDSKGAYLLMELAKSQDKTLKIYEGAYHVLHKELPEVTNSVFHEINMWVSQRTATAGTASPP
# Test: 2-AG assay: MAGL hydrolysis of 2-arachidonoylglycerol to arachidonic acid, followed by mass spectrometry
# Format: biochemical
# Details: footnote [a]: measured in 2-AG assay
# Description: (§1) Alternatively, compounds were profiled for MAGL inhibitory activity by determining the enzymatic activity by following the hydrolysis of the natural substrate 2-arachidonoylglycerol resulting in arachidonic acid, which can be followed by mass spectrometry. This assay is hereinafter abbreviated “2-AG assay”.
# (§2) The 2-AG assay was carried out in 384 well assay plates (PP, Greiner Cat #784201) in a total volume of 20 μL. Compound dilutions were made in 100% DMSO (VWR Chemicals 23500.297) in a polypropylene plate in 3-fold dilution steps to give a final concentration range in the assay from 12.5 μM to […]. 0.25 μL compound dilutions (100% DMSO) were added to 9 μL MAGL in assay buffer (50 mM TRIS (GIBCO, 15567-027), 1 mM EDTA (Fluka, 03690-100 ml), 0.01% (v/v) Tween. After shaking, the plate was incubated for 15 min at RT. To start the reaction, 10 μL 2-arachidonoylglycerol in assay buffer was added. The final concentrations in the assay was […] and 8 μM 2-arachidonoylglycerol. After shaking and 30 min incubation at RT, the reaction was quenched by the addition of 40 μL of acetonitrile containing 4 μM of d8-arachidonic acid. The amount of arachidonic acid was traced by an online SPE system (Agilent Rapidfire) coupled to a triple quadrupole mass spectrometer (Agilent 6460). A C18 SPE cartridge (G9205A) was used in an acetonitrile/water liquid setup. The mass spectrometer was operated in negative electrospray mode following the mass transitions 303.1→259.1 for arachidonic acid and 311.1→267.0 for d8-arachidonic acid. The activity of the compounds was calculated based on the ratio of intensities [arachidonic acid/d8-arachidonic acid].
row,Compound,IC50
1,"O=C1CO[C@H]2CCN(C(=O)N3CC4(CN(Cc5ccc(C(F)(F)F)cc5F)C4)C3)C[C@H]2N1 [Example 12, (4aR,8aS)-6-(6-(2-Fluoro-4-(trifluoromethyl)benzyl)-2,6-diazaspiro[3.3]heptane-2-carbonyl)hexahydro-2H-pyrido[4,3-b][1,4]oxazin-3(4H)-one]",0.0157 µM
2,"O=C1CO[C@H]2CCN(C(=O)N3CCC4(CC3)CN(Cc3ccc(C(F)(F)F)cc3F)C4)C[C@H]2N1 [Example 13, (4aR,8aS)-6-(2-(2-Fluoro-4-(trifluoromethyl)benzyl)-2,7-diazaspiro[3.5]nonane-7-carbonyl)hexahydro-2H-pyrido[4,3-b][1,4]oxazin-3(4H)-one]",0.0764 µM
3,"O=C1CO[C@H]2CCN(C(=O)N3CCC4(CCN(Cc5ccc(C(F)(F)F)cc5F)C4)C3)C[C@H]2N1 (stereo partly drawn) [Example 14, (4aR,8aS)-6-(7-(2-Fluoro-4-(trifluoromethyl)benzyl)-2,7-diazaspiro[4.4]nonane-2-carbonyl)hexahydro-2H-pyrido[4,3-b][1,4]oxazin-3(4H)-one]",0.268 µM
4,"O=C1CO[C@H]2CCN(C(=O)N3CCC4(CN(Cc5ccc(C(F)(F)F)cc5F)C4)C3)C[C@H]2N1 [Example 15, (4aR,8aS)-6-(2-(2-Fluoro-4-(trifluoromethyl)benzyl)-2,6-diazaspiro[3.4]octane-6-carbonyl)hexahydro-2H-pyrido[4,3-b][1,4]oxazin-3(4H)-one]",2.03 µM
5,"O=C1CO[C@H]2CCN(C(=O)N3CC4(C3)CN(S(=O)(=O)c3ccc(F)cc3Cl)C4)C[C@H]2N1 [Example 16, (4aR,8aS)-6-(6-((2-Chloro-4-fluorophenyl)sulfonyl)-2,6-diazaspiro[3.3]heptane-2-carbonyl)hexahydro-2H-pyrido[4,3-b][1,4]oxazin-3(4H)-one]",0.228 µM
6,"O=C1CO[C@H]2CCN(C(=O)N3CC4(C3)CN(S(=O)(=O)c3ccc(C(F)(F)F)cc3F)C4)C[C@H]2N1 [Example 17, (4aR,8aS)-6-(6-((2-Fluoro-4-(trifluoromethyl)phenyl)sulfonyl)-2,6-diazaspiro[3.3]heptane-2-carbonyl)hexahydro-2H-pyrido[4,3-b][1,4]oxazin-3(4H)-one]",0.768 µM
7,"O=C1CO[C@H]2CCN(C(=O)N3CC4(CC(Oc5cc(C(F)(F)F)c(C(F)(F)F)cn5)C4)C3)C[C@H]2N1 [Example 22, (4aR,8aS)-6-(6-((4,5-Bis(trifluoromethyl)pyridin-2-yl)oxy)-2-azaspiro[3.3]heptane-2-carbonyl)hexahydro-2H-pyrido[4,3-b][1,4]oxazin-3(4H)-one]",0.0038 µM
8,"O=C1CO[C@H]2CCN(C(=O)N3CC4(CC(Oc5ccc(C(F)(F)F)c(C(F)(F)F)n5)C4)C3)C[C@H]2N1 [Example 23, (4aR,8aS)-6-(6-((5,6-Bis(trifluoromethyl)pyridin-2-yl)oxy)-2-azaspiro[3.3]heptane-2-carbonyl)hexahydro-2H-pyrido[4,3-b][1,4]oxazin-3(4H)-one]",0.0048 µM
9,"CN([C@H]1COC2(CCN(C(=O)N3CC[C@@H]4OCC(=O)N[C@@H]4C3)CC2)C1)S(=O)(=O)c1ccc(F)cc1Cl [Example 24, 2-Chloro-4-fluoro-N-methyl-N-((R)-8-((4aR,8aS)-3-oxooctahydro-2H-pyrido[4,3-b][1,4]oxazine-6-carbonyl)-1-oxa-8-azaspiro[4.5]decan-3-yl)benzenesulfonamide]",0.0209 µM
10,"O=C1CO[C@H]2CCN(C(=O)N3CC4(CC(Oc5ccc(C(F)(F)F)cn5)C4)C3)C[C@H]2N1 [Example 25, (4aR,8aS)-6-(6-((5-(Trifluoromethyl)pyridin-2-yl)oxy)-2-azaspiro[3.3]heptane-2-carbonyl)hexahydro-2H-pyrido[4,3-b][1,4]oxazin-3(4H)-one]",0.0289 µM
11,"Cc1ccc(COC2CC3(C2)CN(C(=O)N2CC[C@@H]4OCC(=O)N[C@@H]4C2)C3)cc1C(F)(F)F [Example 26, (4aR,8aS)-6-(6-((4-Methyl-3-(trifluoromethyl)benzyl)oxy)-2-azaspiro[3.3]heptane-2-carbonyl)hexahydro-2H-pyrido[4,3-b][1,4]oxazin-3(4H)-one]",0.031 µM
12,"O=C1CO[C@H]2CCN(C(=O)N3CCC4(CC3)CN(S(=O)(=O)c3ccc(F)cc3Cl)C4)C[C@H]2N1 [Example 27, (4aR,8aS)-6-(2-((2-Chloro-4-fluorophenyl)sulfonyl)-2,7-diazaspiro[3.5]nonane-7-carbonyl)hexahydro-2H-pyrido[4,3-b][1,4]oxazin-3(4H)-one]",0.0331 µM
13,"O=C1CO[C@H]2CCN(C(=O)N3CC4(CC(OCc5ccc(C(F)(F)F)cc5F)C4)C3)C[C@H]2N1 [Example 28, (4aR,8aS)-6-(6-((2-Fluoro-4-(trifluoromethyl)benzyl)oxy)-2-azaspiro[3.3]heptane-2-carbonyl)hexahydro-2H-pyrido[4,3-b][1,4]oxazin-3(4H)-one]",0.0364 µM
14,"CN([C@H]1COC2(CCN(C(=O)N3CC[C@@H]4OCC(=O)N[C@@H]4C3)CC2)C1)S(=O)(=O)c1ccccc1 [Example 30, N-Methyl-N-((R)-8-((4aR,8aS)-3-oxooctahydro-2H-pyrido[4,3-b][1,4]oxazine-6-carbonyl)-1-oxa-8-azaspiro[4.5]decan-3-yl)benzenesulfonamide]",0.0493 µM
15,"O=C1CO[C@H]2CCN(C(=O)N3CCC4(CC3)CN(S(=O)(=O)c3ccc(C(F)(F)F)cc3)C4)C[C@H]2N1 [Example 37, (4aR,8aS)-6-(2-((4-(Trifluoromethyl)phenyl)sulfonyl)-2,7-diazaspiro[3.5]nonane-7-carbonyl)hexahydro-2H-pyrido[4,3-b][1,4]oxazin-3(4H)-one]",0.389 µM
16,"O=C1CO[C@H]2CCN(C(=O)N3CCC4(CC3)CC(Oc3ccc(F)cc3F)C4)C[C@H]2N1 [Example 40, (4aR,8aS)-6-[2-(2,4-Difluorophenoxy)-7-azaspiro[3.5]nonane-7-carbonyl]-4,4a,5,7,8,8a-hexahydropyrido[4,3-b][1,4]oxazin-3-one]",0.0113 µM
17,"O=C1CO[C@H]2CCN(C(=O)N3CCC4(CC3)CC(Oc3ccc(F)cc3Cl)C4)C[C@H]2N1 [Example 42, (4aR,8aS)-6-[2-(2-Chloro-4-fluoro-phenoxy)-7-azaspiro[3.5]nonane-7-carbonyl]-4,4a,5,7,8,8a-hexahydropyrido[4,3-b][1,4]oxazin-3-one]",0.0021 µM
18,"O=C1CO[C@H]2CCN(C(=O)N3CC4(CC(COc5ccc(C(F)(F)F)cc5F)C4)C3)C[C@H]2N1 [Example 43, (4aR,8aS)-6-[6-[[2-Fluoro-4-(trifluoromethyl)phenoxy]methyl]-2-azaspiro[3.3]heptane-2-carbonyl]-4,4a,5,7,8,8a-hexahydropyrido[4,3-b][1,4]oxazin-3-one]",0.001 µM

# Target: T1, MAGL
# Test: MAGL inhibition, Table 1 values with no assay marker (2-AG or 4-NPA assay not stated)
# Format: biochemical
# Details: not given
# Description: Compounds were profiled for MAGL inhibitory activity by measuring the enzymatic activity of MAGL by following the hydrolysis of 4-nitrophenylacetate resulting in 4-nitrophenol, which absorbs at 405-412 nm (G. G. Muccioli, G. Labar, D. M. Lambert, Chem. Bio. Chem. 2008, 9, 2704-2710). This assay is hereinafter abbreviated “4-NPA assay”.
# The 4-NPA assay was carried out in 384 well assay plates (black with clear bottom, non-binding surface treated, Corning Ref. 3655) in a total volume of 40 μL. Compound dilutions were made in 100% DMSO (VWR Chemicals 23500.297) in a polypropylene plate in 3-fold dilution steps to give a final concentration range in the assay from 25 μM to 1.7 nM. 1 μL compound dilutions (100% DMSO) were added to 19 μL MAGL (recombinant wild-type) in assay buffer (50 mM TRIS (GIBCO, 15567-027), 1 mM EDTA (Fluka, 03690-100 ml)). The plate was shaked for 1 min at 2000 rpm (Variomag Teleshake) and then incubated for 15 min at RT. To start the reaction, 20 μL 4-Nitrophenylacetate (Sigma N-8130) in assay buffer with 6% EtOH was added. The final concentrations in the assay were 1 nM MAGL and 300 μM 4-Nitrophenylacetate. After shaking (1 min, 2000 rpm) and 5 min incubation at RT, the absorbance at 405 nm was measured for a first time (Molecular Devices, SpectraMax Paradigm). A second measurement was then done after incubation for 80 min at RT. From the two measurements, the slope was calculated by subtracting the first from the second measurement.
# as §1, §2
row,Compound,IC50
1,"O=C1CO[C@H]2CCN(C(=O)N3CC4(C3)CC(OCc3ccc(C(F)(F)F)cc3F)(C(F)(F)F)C4)C[C@H]2N1 [Example 44, (4aR,8aS)-6-(6-((2-fluoro-4-(trifluoromethyl)benzyl)oxy)-6-(trifluoromethyl)-2-azaspiro[3.3]heptane-2-carbonyl)hexahydro-2H-pyrido[4,3-b][1,4]oxazin-3(4H)-one]",0.185 µM
2,"O=C1CO[C@H]2CCN(C(=O)N3CC4(CC(c5ccc(C(F)(F)F)cc5F)C4)C3)C[C@H]2N1 [Example 45, (4aR,8aS)-6-(6-(2-fluoro-4-(trifluoromethyl)phenyl)-2-azaspiro[3.3]heptane-2-carbonyl)hexahydro-2H-pyrido[4,3-b][1,4]oxazin-3(4H)-one]",0.037 µM
